Data published in patent US9315475B2 (MERCK SHARP & DOHME CORP., priority 2011, dated 2016).

What follows are compounds tested against T1, wildtype HIV-1 protease (Human immunodeficiency virus type 1 group M subtype B, UniProt P04585) (assay: Assay for inhibition of microbial expressed HIV protease (Pepcleav)). Details: Pepcleav (nM), wild type HIV-1 protease expressed in E. coli, peptide substrate, pH 5.5; mean of at least two independent experiments.
T1 construct: the wildtype HIV-1 protease (which was expressed in Escherichia coli); made in house; host or cells: Escherichia coli
Type: biochemical
Description: Assay for Inhibition of Microbial Expressed HIV Protease (“Pepcleav”)
Studies of the inhibition of the wildtype HIV-1 protease (which was expressed in Escherichia coli) were carried out with a peptide substrate [Val-Ser-Gln-Asn-(βnaphthyl)Ala-Pro-Ile-Val (SEQ ID NO:1)]. The inhibitor is first preincubated with the HIV-1 protease (wild type) enzyme in assay buffer (50 mM sodium acetate, pH 5.5, 100 mM NaCl, and 0.1% BSA) for 30 minutes at room temperature. Substrate is added to 400 micromolar in a total volume of 20 microliters containing 20 picomolar HIV-1 protease (final) and the reaction is incubated for 1 hour at 30° C. The reaction is quenched with the addition of formic acid and indinavir to 0.012% and 150 nM final concentrations, respectively. The product formation is determined after separation of product and substrate on a Zorbax Eclipse XDB-C 18 column connected to an API 4000 mass spectrometer (Applied Biosystems) with multiple reaction monitoring (transitions were 644.5/428.9 and 615.4/422.2 (M1/M3) for product and indinavir respectively). The extent of inhibition of the reaction is determined from the peak area of the products.

SMILES | IC50 [nM]
COC(=O)N[C@H](C(=O)Nc1ccccc1CC[C@@H]1CN[C@H](CNC(=O)Oc2ccccc2)CO1)C(c1ccccc1)c1ccccc1 [Example 51, Nα-(methoxycarbonyl)-N-(2-{2-[(2R,5R)-5-{[(phenoxycarbonyl)amino]methyl}morpholin-2-yl]ethyl}phenyl)-β-phenyl-L-phenylalaninamide] | 38

Same assay, conditions: wild type HIV-1 protease expressed in E. coli, peptide substrate, pH 5.5; mean of at least two independent experiments; read-out: Pepcleav

SMILES | IC50 [nM]
COC(=O)N[C@H](C(=O)Nc1ccccc1CC[C@@H]1CN[C@H](CNS(=O)(=O)c2ccc(N)cc2)CO1)C(c1ccccc1)c1ccccc1 [Example 49, N-(2-{2-[(2R,5R)-5-({[(4-aminophenyl)sulfonyl]amino}methyl)morpholin-2-yl]ethyl}phenyl)-Nα-(methoxy-carbonyl)-β-phenyl-L-phenylalaninamide] | 94
COC(=O)N[C@H](C(=O)Nc1ccccc1CC[C@@H]1CN[C@H](CNS(=O)(=O)Cc2ccccc2)CO1)C(c1ccccc1)c1ccccc1 [Example 50, N-(2-{2-[(2R,5R)-5-{[(benzylsulfonyl)amino]methyl}morpholin-2-yl]ethyl}phenyl)-Nα-(methoxycarbonyl)-β-phenyl-L-phenylalaninamide] | 49
COC(=O)N[C@H](C(=O)Nc1ccccc1CC[C@@H]1CN[C@H](CNC(=O)c2ccccc2)CO1)C(c1ccccc1)c1ccccc1 [Example 52, Nα-(methoxycarbonyl)-β-phenyl-N-(2-{2-[(2R,5R)-5-{[(phenylcarbonyl)amino]methyl}morpholin-2-yl]ethyl}phenyl)-L-phenylalaninamide] | 96
COC(=O)N[C@H](C(=O)Nc1ccccc1CC[C@@H]1CN[C@H](CNC(=O)Cc2ccccc2)CO1)C(c1ccccc1)c1ccccc1 [Example 53, Nα-(methoxycarbonyl)-β-phenyl-N-(2-{2-[(2R,5R)-5-{[(phenylacetyl)amino]methyl}morpholin-2-yl]ethyl}phenyl)-L-phenylalaninamide] | 12
COC(=O)N[C@H](C(=O)Nc1ccccc1CC[C@@H]1CN[C@H](CNC(=O)c2cccnn2)CO1)C(c1ccccc1)c1ccccc1 [Example 54, methyl N-[(1S)-1-benzhydryl-2-oxo-2-[[2-[2-[(2R,5R)-5-[(pyridazine-3-carbonyl-amino)methyl]morpholin-2-yl]ethyl]phenyl]amino]ethyl] carbamate] | 26
COC(=O)N[C@H](C(=O)Nc1ccccc1CC[C@@H]1CN[C@H](CNC(=O)c2ccccc2Cl)CO1)C(c1ccccc1)c1ccccc1 [Example 55, methyl N-[(1S)-1-benzhydryl-2-[[2-[2-[(2R,5R)-5-[[(2-chloro-benzoyl)amino]methyl]morpholin-2-yl]ethyl]phenyl]amino]-2-oxo-ethyl]carbamate] | 30
COC(=O)N[C@H](C(=O)Nc1ccccc1CC[C@@H]1CN[C@H](CNC(=O)c2cc3ccccc3[nH]2)CO1)C(c1ccccc1)c1ccccc1 [Example 56, methyl N-[(1S)-1-benzhydryl-2-[[2-[2-[(2R,5R)-5-[(1H-indole-2-carbonylamino)methyl]morpholin-2-yl]ethyl]phenyl]amino]-2-oxo-ethyl]carbamate] | 34
COC(=O)N[C@H](C(=O)Nc1ccccc1CC[C@@H]1CN[C@H](CNC(=O)c2c(C)cccc2C)CO1)C(c1ccccc1)c1ccccc1 [Example 57, methyl N-[(1S)-1-benzhydryl-2-[[2-[2-[(2R,5R)-5-[[(2,6-dimethylbenzoyl)amino]methyl]morpholin-2-yl]ethyl]phenyl]amino]-2-oxo-ethyl]carbamate] | 50
COC(=O)N[C@H](C(=O)Nc1ccccc1CC[C@@H]1CN[C@H](CNC(=O)c2[nH]c(=O)ccc2F)CO1)C(c1ccccc1)c1ccccc1 [Example 58, methyl N-[(1S)-1-benzhydryl-2-[[2-[2-[(2R,5R)-5-[[(3-fluoro-6-oxo-1H-pyridine-2-carbonyl)amino]methyl]morpholin-4-ium-2-yl]ethyl]phenyl]amino]-2-oxo-ethyl]carbamate] | 66
COC(=O)N[C@H](C(=O)Nc1ccccc1CC[C@@H]1CN[C@H](CNC(=O)c2cc3ncccn3n2)CO1)C(c1ccccc1)c1ccccc1 [Example 59, methyl N-[(1S)-1-benzhydryl-2-oxo-2-[[2-[2-[(2R,5R)-5-[(pyrazolo[1,5-a]pyrimidine-2-carbonylamino)methyl]morpholin-2-yl]ethyl]phenyl]amino]ethyl] carbamate] | 71
COC(=O)N[C@H](C(=O)Nc1ccccc1CC[C@@H]1CN[C@H](CNC(=O)c2cc(-c3ccccn3)[nH]n2)CO1)C(c1ccccc1)c1ccccc1 [Example 60, methyl N-[(1S)-1-benzhydryl-2-oxo-2-[[2-[2-[(2R,5R)-5-[[[5-(2-pyridyl)-1H-pyrazole-3-carbonyl]amino]methyl]morpholin-2-yl]ethyl]phenyl]amino]ethyl] carbamate] | 72
COC(=O)N[C@H](C(=O)Nc1ccccc1CC[C@@H]1CN[C@H](CO)CO1)C(c1ccccc1)c1ccccc1 [Example 61, N-(2-{2-[(2R,5R)-5-(hydroxymethyl)morpholin-2-yl]ethyl}phenyl)-Nα-(methoxycarbonyl)-β-phenyl-L-phenylalaninamide] | 160
COC(=O)N[C@H](C(=O)Nc1ccccc1CC[C@@H]1CN[C@H](CSc2ccccc2)CO1)C(c1ccccc1)c1ccccc1 [Example 62, Nα-(methoxycarbonyl)-β-phenyl-N-[2-(2-{(2R,5S)-5-[(phenylsulfanyl)methyl]morpholin-2-yl}ethyl)phenyl]-L-phenylalaninamide] | 130
COC(=O)N[C@H](C(=O)Nc1ccccc1CC[C@@H]1CN[C@H](COc2ccccc2)CO1)C(c1ccccc1)c1ccccc1 [Example 63, Nα-(methoxycarbonyl)-N-(2-{2-[(2R,5S)-5-(phenoxymethyl)morpholin-2-yl]ethyl}phenyl)-β-phenyl-L-phenylalaninamide] | 49
COC(=O)N[C@H](C(=O)Nc1ccccc1CC[C@@H]1CN[C@H](Cn2cc(-c3ccccc3)nn2)CO1)C(c1ccccc1)c1ccccc1 [Example 64, Nα-(methoxycarbonyl)-β-phenyl-N-[2-(2-{(2R,5R)-5-[(4-phenyl-1H-1,2,3-triazol-1-yl)methyl]morpholin-2-yl}ethyl)phenyl]-L-phenylalaninamide] | 56
COC(=O)N[C@H](C(=O)Nc1ccccc1CC[C@@H]1CN[C@H](Cn2cc([Si](C)(C)C)nn2)CO1)C(c1ccccc1)c1ccccc1 [Example 65, Nα-(methoxycarbonyl)-β-phenyl-N-(2-{2-[(2R,5R)-5-{[4-(trimethylsilyl)-1H-1,2,3-triazol-1-yl]methyl}morpholin-2-yl]ethyl}phenyl)-L-phenylalaninamide] | 43
COC(=O)N[C@H](C(=O)Nc1ccccc1CC[C@@H]1CN[C@H](Cn2ccnn2)CO1)C(c1ccccc1)c1ccccc1 [Example 66, Nα-(methoxycarbonyl)-β-phenyl-N-(2-{2-[(2R,5R)-5-(1H-1,2,3-triazol-1-ylmethyl)morpholin-2-yl]ethyl}phenyl)-L-phenylalaninamide] | 100
COC(=O)N[C@H](C(=O)Nc1ccccc1CC[C@@H]1CN[C@H](CCCc2ccccc2)CO1)C(c1ccccc1)c1ccccc1 [Example 67, methyl{(1S)-1-(diphenylmethyl)-2-oxo-2-[(2-{2-[(2R,5R)-5-(3-phenylpropyl)morpholin-2-yl]ethyl}phenyl)amino]ethyl}carbamate] | 26
COC(=O)N[C@H](C(=O)Nc1ccccc1CC[C@@H]1CO[C@H](CCc2ccccc2NC(=O)[C@@H](NC(=O)OC)C(c2ccccc2)c2ccccc2)CN1)C(c1ccccc1)c1ccccc1 [Example 68, dimethyl [(2R,5R)-morpholine-2,5-diylbis {ethane-2,1-diylbenzene-2,1-diylimino[(2S)-1-oxo-3,3-diphenylpropane-1,2-diyl]}]biscarbamate] | 0.03
COC(=O)NCC(=O)Nc1ccccc1CC[C@@H]1CO[C@H](CCc2ccccc2NC(=O)[C@@H](NC(=O)OC)C(c2ccccc2)c2ccccc2)CN1 [Example 69, methyl N-[(1S)-1-benzhydryl-2-[[2-[2-[(2R,5R)-5-[2-[2-[[2-(methoxycarbonylamino)acetyl]amino]phenyl]ethyl]morpholin-2-yl]ethyl]phenyl]amino]-2-oxo-ethyl]carbamate] | 3.4
COCC(=O)Nc1ccccc1CC[C@@H]1CO[C@H](CCc2ccccc2NC(=O)[C@@H](NC(=O)OC)C(c2ccccc2)c2ccccc2)CN1 [Example 70, methyl N-[(1S)-1-benzhydryl-2-[[2-[2-[(2R,5R)-5-[2-[2-[(2-methoxyacetyl)amino]phenyl]ethyl]morpholin-2-yl]ethyl]phenyl]amino]-2-oxo-ethyl]carbamate] | 24
COC(=O)N[C@H](C(=O)Nc1ccccc1CC[C@@H]1CN[C@H](CCc2ccccc2NC(=O)CCc2ccccc2)CO1)C(c1ccccc1)c1ccccc1 [Example 71, methyl N-[(1S)-1-benzhydryl-2-oxo-2-[[2-[2-[(2R,5R)-5-[2-[2-(3-phenylpropanoylamino)phenyl]ethyl]morpholin-2-yl]ethyl]phenyl]amino]ethyl]carbamate] | 1.3
COC(=O)N[C@H](C(=O)Nc1ccccc1CC[C@@H]1CN[C@H](CCc2ccccc2N)CO1)C(c1ccccc1)c1ccccc1 [Example 72, methyl N-[(1S)-1-[[2-[2-[(2R,5R)-5-[2-(2-aminophenyl)ethyl]morpholin-2-yl]ethyl]phenyl]carbamoyl]-2,2-diphenyl-ethyl]carbamate] | 14
